Experimental data as given in US20190077856A1, “METHOD OF TREATING DISEASES USING KINASE MODULATORS” (Memorial Sloan Kettering Cancer Center, priority 2016, published 2019).

Legend:
TPC1 [1] = experiment: Surface HLA-A02 and HLA-ABC by flow cytometry (BB7, W6/32) after 72 hours; format: cell-based, human; conditions: different doses
Method: (§1) FIG. 14A-FIG. 14C: TPC1 (a papillary thyroid cancer cell line) treated with AST487 increased HLA surface expression. FIG. 14A and FIG. 14B: TPC1 cells were seeded and treated with different doses of AST487 (a RET inhibitor). After 72 hours, cells were harvested and surface HLA-A02 and HLA-ABC were measured through flow cytometry with BB7 and W6/32 staining antibodies, respectively. FIG. 14C: After 24 hours of AST487 incubation, cells were lysed and a western blot was performed to show a decrease in pRET and pERK with AST487 treatment.
(§2) The effect of AST487, a RET inhibitor, on TPC1 (a papillary thyroid cancer cell line) was investigated. TPC1 cells were seeded and treated with different doses of AST487. After 72 hours, cells were harvested and surface HLA-A02 and HLA-ABC were measured through flow cytometry with BB7 and W6/32 staining antibodies, respectively (FIG. 14A-FIG. 14B).

pRET and pERK = experiment: Western blot for pRET and pERK after 24 hours; format: cell-based, human; conditions: TPC1
Method: as §1, §2

TT cells = experiment: Surface HLA-A02 and HLA-ABC by flow cytometry (BB7, W6/32) after 72 hours; format: cell-based, human; conditions: different doses
Method: FIG. 15A and FIG. 15B: TT cells were seeded and treated with different doses of AST487 (a RET inhibitor). After 72 hours, cells were harvested and surface HLA-A02 and HLA-ABC were measured through flow cytometry with BB7 and W6/32 staining antibodies, respectively. FIG. 15C: After 24 hours of AST487 incubation, cells were lysed and a western blot was performed. TT cells are derived from a medullary thyroid cancer that has a RET point mutation, as opposed to the TPC1 cells, which are derived from a papillary thyroid cancer and have a RET/PTC1 fusion.
The same analysis was performed in TT cells (a medullary thyroid cancer cell line). TT cells are derived from a medullary thyroid cancer that has a RET point mutation, as opposed to TPC1 cells, which are derived from a papillary thyroid cancer and have a RET/PTC1 fusion. TT cells were seeded and treated with different doses of AST487. After 72 hours, cells were harvested and surface HLA-A02 and HLA-ABC were measured through flow cytometry with BB7 and W6/32 staining antibodies, respectively (FIG. 15A-FIG. 15B). After 24 hours of AST487 incubation, cells were lysed and a western blot was performed (FIG. 15C).

TPC1 [2] = experiment: qPCR of transcript levels of HLA and antigen processing machinery; format: cell-based, human; conditions: 24 or 48 hours
Method: Using qPCR, transcript levels of HLA and antigen processing machinery were measured after TPC1 cells were treated with AST487 for 24 (FIG. 17A) or 48 hours (FIG. 17B). Upregulation of mRNA levels for HLA and antigen processing machinery were seen.
Real-Time PCR: Total RNA was extracted using Qiagen RNA Easy Plus (Qiagen; #74134) after cells were treated for 48 hrs with indicated inhibitor. RNA was converted into cDNA using gScript™ cDNA SuperMix (Quanta Biosciences Gaithersburg, Md. USA). Real-time assays were conducted using TaqMan real-time probes. (Life Technlogies) for human HLA-A (Hs01058806_gl), B2M (Hs00187842_ml), TAP1 (Hs00388677_ml), TAP2 (Hs00241060_ml), and TBP (Hs00427620_ml) using 50 ng cDNA. For assessment of gene expression using RT-PCR PerfeCTa® FastMix® II (Quanta), reactions were carried out in triplicates using standard thermocycling conditions (2 minutes at 50° C., 10 minutes at 95° C., 40 cycles of 15 seconds at 95° C., and 1 minute at 60° C.). TBP was used as internal control and ΔΔCT method was used for relative mRNA calculations.
Next, using qPCR, transcript levels of HLA and antigen processing machinery were measured after TPC1 cells were treated with AST487 for 24 (FIG. 17, left panel) or 48 hours (FIG. 17, right panel). Upregulation of mRNA levels for HLA and antigen processing machinery were seen.

TPC1 [3] = experiment: Binding of TCR mimic antibody ESK and ADCC (chromium release) with ESK-M; format: cell-based, human
Method: FIG. 18A-FIG. 18B: AST487 increased cytolytic activity of TCRm antibody. FIG. 18A: TPC1 cells were treated with different doses of AST487 and binding of ESK (a TCR mimic monoclonal antibody specific for the WT1 RMF peptide/HLA-A02:01 complex) was measured. FIG. 18B: With increase of ESK binding in vitro, the effect on cytolytic activity of ESK was measured with an ADCC assay. TPC1 cells were treated with AST487 or DMSO for 72 hours and then incubated with chromium. Peripheral blood mononuclear cells (PBMCs), chromium labeled target cells, and ESK-M (or an isotype) were mixed and incubated for 5 hours. Varying effector to target ratios were used. Afterwards, chromium levels in the media were measured to determine percent specific lysis.
For FIG. 18A, TPC1 cells were treated with different doses of AST487 and binding of ESK (a TCR mimic monoclonal antibody specific for the WT1 RMF peptide/HLA-A02:01 complex) was measured. For FIG. 18B, with increase of ESK binding in vitro, the effect on cytolytic activity of ESK was measured with an antibody-dependent cell-mediated cytotoxicity (ADCC) assay. TPC1 cells were treated with AST487 or DMSO for 72 hours and then incubated with chromium. PBMCs, chromium labeled target cells, and ESK-M (or an isotype) were mixed and incubated for 5 hours. […] Afterwards, chromium levels in the media were measured to determine percent specific lysis.

TPC1 cells = experiment: In vivo treatment of subcutaneous TPC1 tumors, flow cytometry of tumor cells; design: species or system NRG mice; conditions: 7 days of treatment
Method: FIG. 19A-FIG. 19B: AST487 treatment in vivo increased surface HLA expression levels. FIG. 19A: NRG mice were injected with TPC1 cells and treated with vehicle (control) or AST487. BB7 and W6/32 binding on TPC1 cells were measured, and are shown in FIG. 19A (normalized to vehicle-treated mice) for vehicle-treated, 10 mg/kg AST487-treated, and 35 mg/kg AST487-treated mice. […] PD-L1 levels were measured as binding to anti-PD-L1 antibody.
NRG mice (Jackson labs NOD-Rag 1 null IL2rgnull, NOD rag gamma) were injected with TPC1 cells subcutaneously, and then treated 4 weeks later with vehicle (phosphate buffered saline) or with AST487 (a RET inhibitor) at a dose of 10 mg/kg or 35 mg/kg. After 7 days of treatment, tumors were harvested, and tumor cells were assessed for binding to BB7 (a monoclonal antibody specific to HLA-A02) and binding to W6/32 (a monoclonal antibody specific to pan HLA-ABC). Tumor cells were GFP-labeled and were distinguished from stroma and normal cells by gating for GFP in flow cytometry. […] One mouse in the vehicle control group was excluded as an outlier with 99% confidence interval as determined by Q test. PD-L1 expression by the tumor was also assessed by measuring binding of anti-PD-L1 antibody.

cytolytic activity of TCRm antibody (ADCC, ESK-M) (TPC1 [3]; 72 hours AST487, then PBMCs and ESK-M 5 hours): increased
ESK binding (TPC1 [3]; different doses): increase
Compound: CCN1CCN(Cc2ccc(NC(=O)Nc3ccc(Oc4cc(NC)ncn4)cc3)cc2C(F)(F)F)CC1 [AST487, 1-[4-[(4-ethylpiperazin-1-yl)methyl]-3-(trifluoromethyl)phenyl]-3-[4-[6-(methylamino)pyrimidin-4-yl]oxyphenyl]urea]
HLA class I surface expression (TPC1 [1]): increased
pRET and pERK (pRET and pERK): decrease
surface HLA-A (TT cells): upregulated
mRNA levels for HLA and antigen processing machinery (TPC1 [2]): Upregulation
HLA-A02 expression (BB7 binding) on the surface of the tumor cells (TPC1 cells; 10 mg/kg or 35 mg/kg): increased
pan HLA-ABC expression (W6/32 binding) on the surface of the tumor cells (TPC1 cells; 10 mg/kg or 35 mg/kg): increased
expression of PD-L1 by the tumor (TPC1 cells; anti-PD-L1 antibody binding): did not change
